Measured values from the NIST ThermoML archive (doi:10.1021/je200806n).

How the values were obtained:
[1] = 101.3 kPa, Liquid
[2] = xn = mol fraction of the nth substance listed; conditions: 101.3 kPa, Liquid

CCCCCC(C)O (centres undefined) [2-heptanol]
[1]
Conditions	mass density [kg/m3]	viscosity [mPa·s]
298.15 K	813.18	5.023
303.15 K	809.26	4.151
308.15 K	805.01	3.478
313.15 K	801.14	2.852

CCCCC(C)O (centres undefined) [2-hexanol]
[1]
Conditions	mass density [kg/m3]	viscosity [mPa·s]
298.15 K	810.14	4.101
303.15 K	806.13	3.411
308.15 K	802.06	2.819
313.15 K	797.96	2.219

CCC(C)O (centres undefined) [butan-2-ol]
[1]
Conditions	mass density [kg/m3]	viscosity [mPa·s]
298.15 K	803.01	3.104
303.15 K	798.29	2.597
308.15 K	793.57	2.152
313.15 K	789.15	1.733

O=C1CCCCC1 [cyclohexanone]
[1]
Conditions	mass density [kg/m3]	viscosity [mPa·s]
298.15 K	941.91	2.057
303.15 K	937.24	1.847
308.15 K	932.67	1.694
313.15 K	927.72	1.546

CCCC(C)O (centres undefined) [pentan-2-ol]
[1]
Conditions	mass density [kg/m3]	viscosity [mPa·s]
298.15 K	805.41	3.499
303.15 K	801.21	2.801
308.15 K	796.64	2.334
313.15 K	792.51	1.993

CCCC(C)O (centres undefined) [pentan-2-ol] + O=C1CCCCC1
[2]
Conditions	mass density, 298.15 K [kg/m3]	mass density, 303.15 K [kg/m3]	mass density, 308.15 K [kg/m3]	mass density, 313.15 K [kg/m3]	viscosity, 298.15 K [mPa·s]	viscosity, 303.15 K [mPa·s]	viscosity, 308.15 K [mPa·s]	viscosity, 313.15 K [mPa·s]
x2 = 0	805.41	801.21	796.64	792.51	3.499	2.801	2.334	1.993
x2 = 0.0824	815.31	810.99	806.31	801.99	2.631	2.307	1.891	1.596
x2 = 0.1615	825.12	820.69	815.92	811.53	2.178	1.893	1.541	1.285
x2 = 0.2401	835.08	830.58	825.68	821.06	1.822	1.58	1.265	1.056
x2 = 0.3492	849.18	844.64	839.56	834.77	1.465	1.241	1.007	0.838
x2 = 0.4397	861.19	856.51	851.41	846.47	1.277	1.081	0.881	0.75
x2 = 0.5607	877.71	872.97	867.74	862.65	1.191	1.016	0.865	0.771
x2 = 0.6496	890.14	885.41	880.19	875.09	1.23	1.072	0.935	0.848
x2 = 0.7399	903.04	898.27	893.11	888.08	1.354	1.205	1.062	0.982
x2 = 0.8498	919.21	914.43	909.42	904.33	1.597	1.417	1.294	1.194
x2 = 0.9396	932.71	928.12	923.33	917.99	1.855	1.685	1.523	1.388

CC(C)O [propan-2-ol]
[1]
Conditions	mass density [kg/m3]	viscosity [mPa·s]
298.15 K	781.09	2.055
303.15 K	776.57	1.788
308.15 K	771.87	1.563
313.15 K	767.36	1.378

CC(C)O [propan-2-ol] + O=C1CCCCC1
[2], x2 = 0
Conditions	mass density [kg/m3]	viscosity [mPa·s]
298.15 K	781.09	2.055
303.15 K	776.57	1.788
308.15 K	771.87	1.563
313.15 K	767.36	1.378
